{"source": "patent EP4796536A1", "about": "“CRYSTAL FORMS OF COMPOUND HAVING FUSED FIVE- AND SIX-MEMBERED RINGS, PREPARATION METHOD THEREFOR, AND USE THEREOF” (Hangzhou Polymed Biopharmaceuticals, Inc., priority 2023, dated 2025)", "key": {"[1]": {"assay": "Solubility of crystal forms in buffers, biorelevant media and water (HPLC, XRPD of residual solid)", "assay_type": "physicochemical", "settings": "for pH (24 h): 5 mg/mL suspension stirred at 37°C, pH of the solution at 24 h; for Solubility at 37°C (mg/mL) 2 h: 120 min", "method": "The solubility of the two crystal forms at 2 hours and 24 hours and the pH of the solution at 24 hours were tested. The solid was filtered, and the resulting solid was tested for XRPD."}, "[2]": {"assay": "Physicochemical stability of crystal forms (HPLC purity, XRPD)"}, "[3]": {"assay": "Hygroscopicity by dynamic vapor sorption (DVS)", "assay_type": "physicochemical", "method": "Samples are analyzed for hygroscopicity using Intrinsic DVS ([…], UK). Approximately 10 to 30 mg of sample is used for testing. The testing chamber is controlled at a temperature of 25 ± 1°C with the specific testing parameters shown below: […]"}, "[4]": {"assay": "Mechanical stability: dry grinding, wet grinding, tableting (XRPD)", "assay_type": "physicochemical", "method": "Dry grinding: approximately 10 mg of the starting sample was ground for 3 minutes in a mortar, and then subjected to XRPD testing.\nWet grinding: approximately 10 mg of the starting sample was ground with 1 to 2 drops of solvent for 3 minutes in a mortar, and then subjected to XRPD testing.\nTableting experiment: approximately 10 mg of the starting sample was compressed at 20 MPa for 3 minutes, and then subjected to XRPD testing."}, "[5]": {"settings": "Dry grinding, 3 minutes in a mortar, no solvent"}, "[6]": {"settings": "Tableting, 20 MPa for 3 minutes, solvent EA"}, "[7]": {"settings": "Wet grinding, solvent EtOH, 3 minutes in a mortar"}, "[8]": {"settings": "Wet grinding, solvent Water, 3 minutes in a mortar"}}, "data": [{"smiles": "COc1cc2nn(C3CC4(CCN(C(=O)C5CCN(c6ccc7c(c6)C(=O)N(C6CCC(=O)NC6=O)C7=O)CC5)CC4)C3)cc2cc1NC(=O)c1cccc(C(F)(F)F)n1", "note": "(single isomer, unassigned) [crystal form A]", "values": [{"measurement": "pH (24 h)", "setting": "[1]; FaSSIF", "result": 6.570}, {"measurement": "Solubility at 37°C (mg/mL) 2 h", "setting": "[1]; FaSSIF, 37°C, 2 h", "result": 0.00461, "unit": "mg/mL"}, {"measurement": "Solubility at 37°C (mg/mL) 24 h", "setting": "[1]; FaSSIF, 37°C, 1440 min", "result": 0.00285, "unit": "mg/mL"}, {"measurement": "solubility", "setting": "[1]; FeSSIF, stirring at 37°C for 24 hours, 1440 min", "result": "approximately 0.004 mg/mL"}, {"measurement": "pH (24 h)", "setting": "[1]; FeSSIF", "result": 5.032}, {"measurement": "Solubility at 37°C (mg/mL) 2 h", "setting": "[1]; FeSSIF, 37°C, 2 h", "result": 0.00391, "unit": "mg/mL"}, {"measurement": "Solubility at 37°C (mg/mL) 24 h", "setting": "[1]; FeSSIF, 37°C, 1440 min", "result": 0.00414, "unit": "mg/mL"}, {"measurement": "pH (24 h)", "setting": "[1]; SGF", "result": 1.225}, {"measurement": "pH (24 h)", "setting": "[1]; Water", "result": 7.311}, {"measurement": "Solubility at 37°C (mg/mL) 24 h", "setting": "[1]; Water, 37°C, 1440 min", "result": 0.00075, "unit": "mg/mL"}, {"measurement": "Crystal form", "setting": "[1]; XRPD of residual solid after stirring in FaSSIF at 37°C for 24 hours", "result": "Crystal form A"}, {"measurement": "Crystal form", "setting": "[1]; XRPD of residual solid after stirring in FeSSIF at 37°C for 24 hours", "result": "Crystal form A"}, {"measurement": "Crystal form", "setting": "[1]; XRPD of residual solid after stirring in SGF at 37°C for 24 hours", "result": "Crystal form A"}, {"measurement": "Crystal form", "setting": "[1]; XRPD of residual solid after stirring in Water at 37°C for 24 hours", "result": "Crystal form A"}, {"measurement": "Crystal form", "setting": "[1]; XRPD of residual solid after stirring in pH 1.2 buffer at 37°C for 24 hours", "result": "Crystal form A"}, {"measurement": "Crystal form", "setting": "[1]; XRPD of residual solid after stirring in pH 3.0 buffer at 37°C for 24 hours", "result": "Crystal form A"}, {"measurement": "Crystal form", "setting": "[1]; XRPD of residual solid after stirring in pH 4.5 buffer at 37°C for 24 hours", "result": "Crystal form A"}, {"measurement": "Crystal form", "setting": "[1]; XRPD of residual solid after stirring in pH 6.8 buffer at 37°C for 24 hours", "result": "Crystal form A"}, {"measurement": "Crystal form", "setting": "[1]; XRPD of residual solid after stirring in pH 7.4 buffer at 37°C for 24 hours", "result": "Crystal form A"}, {"measurement": "solubility at 24 h", "setting": "[1]; fassif, stirring at 37°C for 24 hours, read-out: solubility", "result": "~4", "unit": "µg/mL"}, {"measurement": "pH (24 h)", "setting": "[1]; pH 1.2 buffer", "result": 1.214}, {"measurement": "pH (24 h)", "setting": "[1]; pH 3.0 buffer", "result": 3.078}, {"measurement": "pH (24 h)", "setting": "[1]; pH 4.5 buffer", "result": 4.584}, {"measurement": "Solubility at 37°C (mg/mL) 2 h", "setting": "[1]; pH 4.5 buffer, 37°C, 2 h", "result": 0.00026, "unit": "mg/mL"}, {"measurement": "pH (24 h)", "setting": "[1]; pH 6.8 buffer", "result": 6.833}, {"measurement": "pH (24 h)", "setting": "[1]; pH 7.4 buffer", "result": 7.428}, {"measurement": "solubility at 2 h", "setting": "[1]; water, 37°C, 2 h, read-out: Solubility at 37°C (mg/mL) 2 h", "result": 0.00052, "unit": "mg/mL"}, {"measurement": "Purity (%)", "setting": "[2]; 25°C/60% RH, open, 1 week", "result": 96.38, "unit": "%"}, {"measurement": "XRPD", "setting": "[2]; 25°C/60% RH, open, 1 week", "result": "Unchanged"}, {"measurement": "Purity (%)", "setting": "[2]; 40°C/75% RH, open, 1 week", "result": 96.39, "unit": "%"}, {"measurement": "XRPD", "setting": "[2]; 40°C/75% RH, open, 1 week", "result": "Unchanged"}, {"measurement": "Purity (%)", "setting": "[2]; 60°C, closed, 1 week", "result": 96.40, "unit": "%"}, {"measurement": "XRPD", "setting": "[2]; 60°C, closed, 1 week", "result": "Unchanged"}, {"measurement": "Purity (%)", "setting": "[2]; Initial", "result": 96.41, "unit": "%"}, {"measurement": "XRPD", "setting": "[2]; Initial", "result": "Crystal form A"}, {"measurement": "Purity (%)", "setting": "[2]; Light, closed, 10 days", "result": 96.41, "unit": "%"}, {"measurement": "XRPD", "setting": "[2]; Light, closed, 10 days", "result": "Unchanged"}, {"measurement": "Purity (%)", "setting": "[2]; Light, control, 10 days", "result": 96.42, "unit": "%"}, {"measurement": "XRPD", "setting": "[2]; Light, control, 10 days", "result": "Unchanged"}, {"measurement": "change in the crystal form after stability testing", "setting": "[2]; all stability conditions", "result": "no change in the crystal form"}, {"measurement": "degradation", "setting": "[2]; all stability conditions (60°C, 25°C/60% RH, 40°C/75% RH 1 week; light 10 days)", "result": "no significant degradation"}, {"measurement": "hygroscopic weight gain", "setting": "[3]; 80% RH, 25°C", "result": 2.213, "unit": "%"}, {"measurement": "hygroscopicity evaluation", "setting": "[3]; DVS, based on weight gain at 80% RH", "result": "hygroscopic"}, {"measurement": "crystal form after DVS testing", "setting": "[3]; after DVS testing", "result": "no change in the crystal form"}, {"measurement": "Solid color", "setting": "[4]; [5]", "result": "Slightly deepened, yellow"}, {"measurement": "XRPD results", "setting": "[4]; [5]", "result": "Crystal form A (low degree of crystallinity)"}, {"measurement": "Solid color", "setting": "[4]; [6]", "result": "Slightly deepened, yellow"}, {"measurement": "XRPD results", "setting": "[4]; [6]", "result": "Crystal form A"}, {"measurement": "Solid color", "setting": "[4]; [7]", "result": "Slightly deepened, yellow"}, {"measurement": "XRPD results", "setting": "[4]; [7]", "result": "Crystal form A"}, {"measurement": "Solid color", "setting": "[4]; [8]", "result": "Slightly deepened, yellow"}, {"measurement": "XRPD results", "setting": "[4]; [8]", "result": "Crystal form A"}, {"measurement": "degree of crystallinity of the solid", "setting": "[4]; after dry grinding", "result": "reduction in the degree of crystallinity"}, {"measurement": "crystal form of the solid (XRPD)", "setting": "[4]; after dry grinding, wet grinding, and tableting", "result": "no change in the crystal form"}, {"measurement": "Solid color", "setting": "[4]; after grinding and tableting experiments, versus starting sample", "result": "slightly darker"}, {"measurement": "degree of crystallinity of the solid", "setting": "[4]; after wet grinding and tableting", "result": "almost no change in the degree of crystallinity"}]}]}
